# From patent publication US8431561B2 (priority 2004, dated 2013)
# Entries after “also recorded” stand apart in the source; their conditions may differ. Like-named read-outs stand apart in the source and are kept apart here.
# Assays:
# [1] = target: apoenzyme of methylmalonyl-CoA mutase (Propionibacterium freudenreichii subsp. shermanii, UniProt P11653); settings: cited from earlier work
# [2] = tested on: Chinese hamster cells (cytochrome c oxidase); format: cell-based
# [3] = tested on: VASP phosphorylation in rat C6 glioma cells; format: cell-based
# [4] = human, in vivo, iv; cited from earlier work
# [5] = tested on: Malpighian tubules of D. melanogaster; format: cell-based
# D. melanogaster [6] = settings: in vivo
# D. melanogaster [7] = settings: in vivo; remark: listed apart in the source
# D. melanogaster [8] = settings: in vivo; remark: listed apart in the source
# methylmalonyl-CoA mutase [9] = format: cell-based, baby hamster
# [10] = tested on: Malpighian tubules of D. melanogaster; format: cell-based; remark: listed apart in the source
# methionine synthase [11] = format: cell-based, baby hamster
# [12] = tested on: NO (nitrite plus nitrate), C6 cells; format: cell-based, rat
# haptocorrin = haptocorrin (Homo sapiens, UniProt P20061); settings: cited from earlier work
# [13] = tested on: human monocytes and lymphocytes; settings: cited from earlier work
# [14] = target: methionine synthase apoenzyme (Homo sapiens, UniProt Q99707); settings: cited from earlier work
# methylmalonyl-CoA mutase [15] = format: biochemical, baby hamster
# [16] = tested on: BHK, CS-54, and C6 cells, human foreskin fibroblasts and HUVECs; settings: cited from earlier work
# [17] = tested on: BHK, CS-54, and C6 cells, human foreskin fibroblasts and HUVECs
# [18] = tested on: Malpighian tubules of D. melanogaster; settings: in vivo
# [19] = tested on: NO (nitrite plus nitrate), CS-54 cells; format: cell-based, rat
# [20] = pig, in vivo; cited from earlier work
# mouse leukemic cells = settings: cited from earlier work
# [21] = tested on: NO (nitrite and nitrate) in Malpighian tubule medium; format: cell-based, D. melanogaster
# baby chicks = settings: in vivo, cited from earlier work
# [22] = rabbit, in vivo, cited from earlier work
# Chinese hamster cells = format: cell-based
# methionine synthase [23] = format: biochemical, baby hamster
# transcobalamin II = settings: cited from earlier work
# [24] = tested on: VASP phosphorylation in CS-54 vascular smooth muscle cells; format: cell-based, rat
# rats = settings: rat, in vivo, sc; cited from earlier work
# haptocorrin, sequence (P20061 24-433): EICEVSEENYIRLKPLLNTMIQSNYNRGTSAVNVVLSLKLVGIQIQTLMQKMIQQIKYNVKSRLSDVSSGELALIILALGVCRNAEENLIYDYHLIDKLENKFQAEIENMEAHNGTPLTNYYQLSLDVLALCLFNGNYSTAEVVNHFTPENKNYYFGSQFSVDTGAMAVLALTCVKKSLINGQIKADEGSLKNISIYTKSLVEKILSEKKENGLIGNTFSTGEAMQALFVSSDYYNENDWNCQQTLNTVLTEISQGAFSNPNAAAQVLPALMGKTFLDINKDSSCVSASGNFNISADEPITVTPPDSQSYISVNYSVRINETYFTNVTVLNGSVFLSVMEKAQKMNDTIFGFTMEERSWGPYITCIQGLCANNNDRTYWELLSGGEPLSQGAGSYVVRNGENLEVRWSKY
# methionine synthase apoenzyme, sequence (Q99707 whole entry): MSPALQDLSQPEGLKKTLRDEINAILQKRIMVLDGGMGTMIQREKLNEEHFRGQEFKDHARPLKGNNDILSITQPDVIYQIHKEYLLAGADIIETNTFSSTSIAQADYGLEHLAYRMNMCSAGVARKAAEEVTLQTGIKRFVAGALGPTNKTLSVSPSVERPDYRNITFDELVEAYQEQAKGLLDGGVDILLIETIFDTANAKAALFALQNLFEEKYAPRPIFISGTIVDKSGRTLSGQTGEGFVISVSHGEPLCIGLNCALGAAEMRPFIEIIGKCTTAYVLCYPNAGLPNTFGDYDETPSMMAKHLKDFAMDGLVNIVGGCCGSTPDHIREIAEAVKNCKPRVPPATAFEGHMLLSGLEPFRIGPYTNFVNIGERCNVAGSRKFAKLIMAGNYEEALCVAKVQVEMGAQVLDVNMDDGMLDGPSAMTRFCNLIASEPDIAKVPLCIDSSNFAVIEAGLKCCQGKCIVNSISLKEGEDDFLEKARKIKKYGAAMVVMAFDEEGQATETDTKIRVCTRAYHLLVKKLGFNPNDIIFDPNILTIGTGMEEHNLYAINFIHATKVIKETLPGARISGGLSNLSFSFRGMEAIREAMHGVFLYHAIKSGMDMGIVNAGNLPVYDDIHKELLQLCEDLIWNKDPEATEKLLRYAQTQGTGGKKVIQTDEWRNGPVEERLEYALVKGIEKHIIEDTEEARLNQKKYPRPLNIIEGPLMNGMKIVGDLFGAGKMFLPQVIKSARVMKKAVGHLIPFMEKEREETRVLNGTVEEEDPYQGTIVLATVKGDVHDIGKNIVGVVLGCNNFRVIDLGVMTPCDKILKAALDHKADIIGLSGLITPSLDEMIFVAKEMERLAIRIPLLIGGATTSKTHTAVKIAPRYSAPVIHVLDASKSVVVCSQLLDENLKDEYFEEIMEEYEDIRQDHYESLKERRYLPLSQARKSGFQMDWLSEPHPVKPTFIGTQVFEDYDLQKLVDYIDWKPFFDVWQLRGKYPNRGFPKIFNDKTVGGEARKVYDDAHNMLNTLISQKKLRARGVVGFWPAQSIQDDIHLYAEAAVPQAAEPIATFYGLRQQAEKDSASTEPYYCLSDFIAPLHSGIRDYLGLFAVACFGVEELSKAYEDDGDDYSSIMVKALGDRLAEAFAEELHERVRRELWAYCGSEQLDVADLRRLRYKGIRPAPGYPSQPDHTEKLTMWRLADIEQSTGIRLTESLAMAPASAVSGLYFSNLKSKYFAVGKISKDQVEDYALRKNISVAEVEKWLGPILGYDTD
# apoenzyme of methylmalonyl-CoA mutase, sequence (P11652 2-638): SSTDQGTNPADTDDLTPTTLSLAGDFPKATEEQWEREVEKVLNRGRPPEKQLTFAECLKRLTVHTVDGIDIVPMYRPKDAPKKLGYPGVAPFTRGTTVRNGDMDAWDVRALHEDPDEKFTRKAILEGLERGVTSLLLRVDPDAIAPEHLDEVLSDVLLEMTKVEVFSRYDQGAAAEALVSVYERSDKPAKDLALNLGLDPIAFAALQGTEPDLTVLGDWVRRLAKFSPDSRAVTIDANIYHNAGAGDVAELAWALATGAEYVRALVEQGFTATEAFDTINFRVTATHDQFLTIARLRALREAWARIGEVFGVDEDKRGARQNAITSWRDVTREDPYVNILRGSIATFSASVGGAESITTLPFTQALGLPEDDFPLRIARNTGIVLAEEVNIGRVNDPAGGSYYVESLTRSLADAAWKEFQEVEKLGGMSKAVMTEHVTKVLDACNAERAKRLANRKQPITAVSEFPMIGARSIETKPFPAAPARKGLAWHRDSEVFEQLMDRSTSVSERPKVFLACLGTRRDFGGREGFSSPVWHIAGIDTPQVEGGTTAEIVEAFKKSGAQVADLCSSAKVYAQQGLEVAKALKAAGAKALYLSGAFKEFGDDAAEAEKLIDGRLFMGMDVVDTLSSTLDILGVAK
# apoenzyme of methylmalonyl-CoA mutase, sequence (P11653 2-728): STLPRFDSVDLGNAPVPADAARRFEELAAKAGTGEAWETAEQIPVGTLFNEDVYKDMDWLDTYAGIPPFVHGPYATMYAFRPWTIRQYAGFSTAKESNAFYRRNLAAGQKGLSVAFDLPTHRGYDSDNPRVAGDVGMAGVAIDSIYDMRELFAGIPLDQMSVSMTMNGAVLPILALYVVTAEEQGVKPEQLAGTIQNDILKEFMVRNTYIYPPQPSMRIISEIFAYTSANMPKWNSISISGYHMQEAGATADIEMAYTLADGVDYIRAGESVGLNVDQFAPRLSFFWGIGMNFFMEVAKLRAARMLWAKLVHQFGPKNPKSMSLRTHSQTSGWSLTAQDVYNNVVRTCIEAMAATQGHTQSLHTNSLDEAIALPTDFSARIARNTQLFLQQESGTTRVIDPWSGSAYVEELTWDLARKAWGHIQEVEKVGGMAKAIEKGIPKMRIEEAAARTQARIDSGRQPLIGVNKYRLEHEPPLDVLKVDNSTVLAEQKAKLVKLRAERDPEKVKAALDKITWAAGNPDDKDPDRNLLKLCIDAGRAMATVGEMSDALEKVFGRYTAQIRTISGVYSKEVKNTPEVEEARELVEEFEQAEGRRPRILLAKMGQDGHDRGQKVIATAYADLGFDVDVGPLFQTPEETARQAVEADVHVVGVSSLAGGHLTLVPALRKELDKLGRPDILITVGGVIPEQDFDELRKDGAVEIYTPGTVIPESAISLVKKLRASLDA
molecule,measurement,setting,value
5′-deoxyadenosyl-cobinamide,restoring function to the apoenzyme of methylmalonyl-CoA mutase,[1],inactive
"C/C1=C2/[N-][C@H]([C@H](CC(N)=O)[C@@]2(C)CCC(=O)NC[C@H](C)OP(=O)([O-])O[C@H]2[C@@H](O)[C@@H](n3cnc4cc(C)c(C)cc43)O[C@@H]2CO)[C@]2(C)N=C(/C(C)=C3N=C(/C=C4N=C1[C@@H](CCC(N)=O)C\4(C)C)[C@@H](CCC(N)=O)[C@]\3(C)CC(N)=O)[C@@H](CCC(N)=O)[C@]2(C)CC(N)=O.[Co+2] (stereo in doubt) [cobalamin, reference compound]",effect on oxygen consumption,[2],Neither cobinamide nor cobalamin alone had any effect on oxygen consumption
same,"recovery of respiration, of control non-KCN-treated cells",[2],42%
same,"effect on NO scavenging by cobinamide, VASP phosphorylation",[3],no effect on NO scavenging by cobinamide
same,mean peak serum concentration,[4],about 650 μM
same,"effect on NO scavenging by cobinamide, tubular fluid secretion",[5],no effect on NO scavenging by cobinamide
same,survival rate,D. melanogaster [6],38%
same,toxicity to flies,D. melanogaster [7],No toxicity
same,flies salvaged,D. melanogaster [8],62%
same,flies survived,D. melanogaster [8],44%
same,mortality rate,D. melanogaster [8],55%
same,prevention of cobinamide effect on [14C]-propionic acid incorporation,methylmalonyl-CoA mutase [9],completely prevented
same,basal secretion rates,[10],no effect on basal secretion rates
same,resistance to KCN inhibition of tubular secretion,[10],significant resistance to the inhibitory effect of KCN; also recorded: intermediate degree of resistance to KCN
same,prevention of cobinamide effect on [14C]-formate incorporation,methionine synthase [11],completely prevented
C/C1=C2/[N-][C@H]([C@H](CC(N)=O)[C@@]2(C)CCC(=O)NC[C@@H](C)O)[C@]2(C)N=C(/C(C)=C3N=C(/C=C4N=C1[C@@H](CCC(N)=O)C\4(C)C)[C@@H](CCC(N)=O)[C@]\3(C)CC(N)=O)[C@@H](CCC(N)=O)[C@]2(C)CC(N)=O.[Co+3] [cobinamide],nitrite plus nitrate concentrations in medium,[12],significant decrease in the nitrite plus nitrate concentrations
same,binding to haptocorrin,haptocorrin,binds tightly
same,effect on oxygen consumption,[2],Neither cobinamide nor cobalamin alone had any effect on oxygen consumption
same,"recovery of respiration, of control non-KCN-treated cells",[2],about 75%
same,growth inhibitory effects,[13],no growth inhibitory effects
same,restoration of methionine synthase apoenzyme activity,[14],can restore the methionine synthase apoenzyme to full activity
same,binding to serum albumin,serum albumin,binds tightly to serum albumin
same,methylmalonyl-CoA mutase activity in BHK cell extracts,methylmalonyl-CoA mutase [15],no effect
same,not toxic to cultured mammalian cells up to,[16],at least 50 μM
same,concentration at which toxicity began to be observed,[17],about 50 μM
same,reduction of LPS-stimulated tubular secretion rates compared to control flies,[18],about 50%
same,8-pCPT-cGMP-induced VASP phosphorylation,[3],no effect
same,PAPA-NONOate-induced VASP phosphorylation,[3],prevented the increase in VASP phosphorylation; also recorded: prevented increases in VASP phosphorylation
same,nitrite plus nitrate concentrations in medium,[19],significant decrease in the nitrite plus nitrate concentrations
same,rate of tubular secretion,[5],"rapidly reduced tubular secretion, returning rates near to the basal state"
same,absorption across the ileum,[20],can be absorbed across the ileum independently of intrinsic factor
same,survival rate,D. melanogaster [6],65%
same,growth inhibitory effects,mouse leukemic cells,no growth inhibitory effects
same,reduction of combined nitrite and nitrate,[21],about 50%
same,growth of baby chicks,baby chicks; po,did inhibit chick growth
same,growth of baby chicks,baby chicks,no effect on the growth of baby chicks
same,detrimental effect on the flies,D. melanogaster [7],no apparent detrimental effect
same,toxicity to flies,D. melanogaster [7],No toxicity
same,"release from the liver, t?",[22]; iv,~150 h
same,liver retention,[22],retained more by the liver than cobalamin
same,HCN exposure time without any significant increase in mortality,D. melanogaster [8],up to 15 min
same,flies salvaged,D. melanogaster [8],94%
same,flies survived,D. melanogaster [8],65%
same,flies surviving / recovered by 1 h,D. melanogaster [8],approximately 90%
same,mortality rate,D. melanogaster [8],18%
same,outcome of prolonged HCN exposure,D. melanogaster [8],death of all flies
same,prevention of death,D. melanogaster [8],as effective in preventing death under these conditions as it was when administered prior to cyanide exposure
same,growth rate of KCN-treated cells,Chinese hamster cells,restored their growth rate to normal
same,decrease of [14C]-propionic acid incorporation into protein,methylmalonyl-CoA mutase [9],about 50%
same,methionine synthase activity in BHK cell extracts,methionine synthase [23],no effect
same,basal secretion rates,[10],no effect on basal secretion rates
same,resistance to KCN inhibition of tubular secretion,[10],significant resistance to the inhibitory effect of KCN; also recorded: almost complete reversal of the toxic effects of KCN
same,tubular secretion rates,[10],tubular secretion rates increased significantly
same,binding to transcobalamin II,transcobalamin II,binds poorly
same,A23187-induced VASP phosphorylation,[24],significantly attenuated this effect
same,inhibition of methionine synthase or methylmalonyl-CoA mutase,rats,nor did cobinamide inhibit the two mammalian cobalamin-dependent enzymes
same,toxic effects,rats,no apparent toxic effects
same,decrease of [14C]-formate incorporation into purine nucleotides,methionine synthase [11],about 50%
same,inhibition of in vivo methionine synthase activity,methionine synthase [11],minimal inhibition
